Assay results published in patent US7468391B2, “Methods for treating retinoid responsive disorders using selective inhibitors of CYP26A and CYP26B” (Allergan, Inc., priority 2003, dated 2008).

Tests used:
[1] = target: T1, RAR α (Homo sapiens, UniProt P10276); test: RAR α Kd; format: binding; details: last item of cell EC50/(EFFICACY)/Kd
T1 sequence (P10276 1-462): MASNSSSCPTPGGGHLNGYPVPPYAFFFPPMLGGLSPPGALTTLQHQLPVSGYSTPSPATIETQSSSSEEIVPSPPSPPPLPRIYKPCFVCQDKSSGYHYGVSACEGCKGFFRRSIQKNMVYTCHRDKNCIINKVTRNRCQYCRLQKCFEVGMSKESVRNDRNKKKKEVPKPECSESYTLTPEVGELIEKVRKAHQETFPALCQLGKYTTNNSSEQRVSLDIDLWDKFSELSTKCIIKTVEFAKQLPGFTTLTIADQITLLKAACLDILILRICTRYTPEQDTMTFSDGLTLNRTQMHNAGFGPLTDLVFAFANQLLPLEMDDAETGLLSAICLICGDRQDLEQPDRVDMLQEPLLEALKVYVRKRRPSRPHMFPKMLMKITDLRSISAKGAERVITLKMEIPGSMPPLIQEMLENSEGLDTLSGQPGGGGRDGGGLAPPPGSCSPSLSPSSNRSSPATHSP

[2] = target: T2, CYP26A (P450RAI-1) (Homo sapiens, UniProt O43174); test: Cell-based inhibition of RA metabolism in CYP26A stably transfected HeLa cells; details: stably transfected HeLa cells, [3H]-RA, 3 hours at 37° C.; read-out: P450RAI-1 Whole cell IC50
T2 construct: expressed in transfected cells; host or cells: HeLa
T2 sequence (O43174 1-497): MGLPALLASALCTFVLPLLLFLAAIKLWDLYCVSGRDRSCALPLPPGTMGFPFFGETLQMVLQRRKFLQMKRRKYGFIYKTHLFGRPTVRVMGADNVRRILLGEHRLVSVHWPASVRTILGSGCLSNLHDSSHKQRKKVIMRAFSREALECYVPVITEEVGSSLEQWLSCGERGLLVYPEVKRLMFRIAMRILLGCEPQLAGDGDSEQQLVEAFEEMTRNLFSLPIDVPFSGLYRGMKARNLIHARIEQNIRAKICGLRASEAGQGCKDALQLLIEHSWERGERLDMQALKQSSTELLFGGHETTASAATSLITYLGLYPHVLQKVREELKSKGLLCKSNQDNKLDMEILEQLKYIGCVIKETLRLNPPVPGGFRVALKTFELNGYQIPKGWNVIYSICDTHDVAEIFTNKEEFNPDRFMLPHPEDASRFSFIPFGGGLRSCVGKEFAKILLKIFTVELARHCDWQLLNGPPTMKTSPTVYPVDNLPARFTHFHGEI
Description: (§1) In brief, CYP26A or CYP26B can be stably transfected into HeLa cells. Exponentially growing cells are harvested by incubating in trypsin. Cells are then washed and plated in a 48-well plate at 5×10^5 cells in 0.2 ml MEM medium containing 10% FBS and 0.05 μCi [^3H]-RA in the presence or absence of increasing concentrations of the test compounds. The compounds are diluted in 100% DMSO and then added in triplicate wells at either 10, 1 or 0.1 μM final concentration. As a positive control for RA metabolism inhibition, cells are also incubated with ketoconazole at 100, 10 and 1 μM. Cells are incubated for 3 hours at 37 degrees C. The retinoids are then extracted using the procedure of Bligh et al., Canadian Journal of Biochemistry 37: 911-917 (1959), modified by using methylenechloride instead of chloroform. This publication by Bligh et al., is specifically incorporated herein by reference. The water soluble radioactivity is quantified using a β scintillation counter, and IC50 values are determined.
(§2) CYP26A and CYP26B stably transfected HeLa cells were maintained in 100 mm tissue culture dishes in MEM medium containing 10% FBS and 100 μg/ml hygromycin.
(§3) Exponentially growing cells were harvested by incubating in trypsin. Cells were then washed with 1×PBS and plated in a 48-well plate at 5×10^5 cells in 0.2 ml MEM medium containing 10% FBS and 0.05 μCi [^3H]-RA in the presence or absence of increasing concentrations of the test compounds. The compounds were diluted in 100% DMSO and then added to triplicate wells at final concentrations of 10, 1 or 0.1 μM. As a positive control for RA metabolism inhibition, cells were also incubated with ketoconazole at 100, 10 and 1 μM. Cells were incubated for 3 hours at 37° C. The retinoids were then extracted using a modified Bligh and Dyer procedure (Bligh and Dyer, supra (1959)), in which methylene-chloride, as opposed to chloroform, was used, and the aqueous soluble radioactivity quantified using a β-scintillation counter. ID50 values represent the concentration of inhibitor required to inhibit RA metabolism by 50 percent and were derived manually from log-transformed data.

[3] = target: T3, RAR β (Homo sapiens, UniProt P10826); test: RAR β Kd; format: binding; details: last item of cell EC50/(EFFICACY)/Kd
T3 sequence (P10826 1-455): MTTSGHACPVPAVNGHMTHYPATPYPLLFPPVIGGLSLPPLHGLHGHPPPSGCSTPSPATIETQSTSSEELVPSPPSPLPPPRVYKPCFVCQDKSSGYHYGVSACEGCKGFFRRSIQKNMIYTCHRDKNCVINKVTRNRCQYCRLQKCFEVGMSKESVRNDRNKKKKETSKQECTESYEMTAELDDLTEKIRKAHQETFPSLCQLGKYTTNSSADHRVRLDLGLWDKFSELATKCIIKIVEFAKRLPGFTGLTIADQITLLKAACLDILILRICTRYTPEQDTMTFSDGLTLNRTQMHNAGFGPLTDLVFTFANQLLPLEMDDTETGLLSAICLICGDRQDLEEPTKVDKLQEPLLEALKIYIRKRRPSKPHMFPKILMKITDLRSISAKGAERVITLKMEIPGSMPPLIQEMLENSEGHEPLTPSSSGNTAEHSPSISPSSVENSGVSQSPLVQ

[4] = target: T4, RAR γ (Homo sapiens, UniProt P13631); test: RAR γ Kd; format: binding; details: last item of cell EC50/(EFFICACY)/Kd
T4 sequence (P13631 1-454): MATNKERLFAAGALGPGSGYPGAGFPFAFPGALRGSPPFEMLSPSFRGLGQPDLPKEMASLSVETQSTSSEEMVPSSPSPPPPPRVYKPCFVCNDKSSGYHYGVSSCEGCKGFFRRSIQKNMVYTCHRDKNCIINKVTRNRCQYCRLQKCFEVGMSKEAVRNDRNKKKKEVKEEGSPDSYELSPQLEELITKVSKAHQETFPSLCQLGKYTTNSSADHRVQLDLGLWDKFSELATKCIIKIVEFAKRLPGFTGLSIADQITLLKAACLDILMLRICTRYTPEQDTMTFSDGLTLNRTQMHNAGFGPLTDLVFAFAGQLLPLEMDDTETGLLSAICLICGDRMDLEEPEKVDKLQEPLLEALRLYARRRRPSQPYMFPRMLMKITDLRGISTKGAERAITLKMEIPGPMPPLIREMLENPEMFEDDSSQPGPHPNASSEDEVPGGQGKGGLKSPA

[5] = target: T5, CYP26B (P450RAI-2) (Homo sapiens, UniProt Q9NR63); test: Cell-based inhibition of RA metabolism in CYP26B stably transfected HeLa cells; details: stably transfected HeLa cells, [3H]-RA, 3 hours at 37° C.; read-out: P450RAI-2 Whole cell IC50
T5 construct: expressed in transfected cells; host or cells: HeLa
T5 sequence (Q9NR63 1-512): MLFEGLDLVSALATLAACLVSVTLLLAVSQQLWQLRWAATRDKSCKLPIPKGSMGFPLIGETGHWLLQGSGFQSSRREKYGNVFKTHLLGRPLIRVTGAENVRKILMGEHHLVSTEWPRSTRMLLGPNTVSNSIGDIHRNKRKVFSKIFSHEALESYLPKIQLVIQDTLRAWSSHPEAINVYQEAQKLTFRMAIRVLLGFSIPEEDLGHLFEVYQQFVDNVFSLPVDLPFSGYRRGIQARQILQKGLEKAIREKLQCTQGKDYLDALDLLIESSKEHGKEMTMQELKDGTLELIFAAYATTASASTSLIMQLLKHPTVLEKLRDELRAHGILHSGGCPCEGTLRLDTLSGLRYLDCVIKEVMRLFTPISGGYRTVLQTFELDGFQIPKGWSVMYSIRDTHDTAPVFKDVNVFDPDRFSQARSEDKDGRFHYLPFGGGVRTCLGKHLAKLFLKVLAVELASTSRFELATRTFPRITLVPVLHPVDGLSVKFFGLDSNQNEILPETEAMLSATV
Description: as §1, §2, §3

Row | SMILES | Kd [1] [µM] | IC50 [2] [µM] | Kd [3] [µM] | Kd [4] [µM] | IC50 [5] [µM]
1 | CN(Cc1cc(C#Cc2ccc(CC(=O)O)c(F)c2)cc2c1OC(C)(C)CC2(C)C)C1CC1 [Compound 7, (4-{8-[(Cyclopropyl-methyl-amino)-methyl]-2,2,4,4-tetramethyl-chroman-6-ylethynyl}-2-fluoro-phenyl)-acetic acid] | > 10 | 0.04 | > 10 | > 10 | 2
2 | CC1(C)CC(C)(C)c2cc(C#Cc3ccc(C(C)(C)C(=O)O)cc3)cc(O)c2O1 [Compound 12, 2-[4-(8-Hydroxy-2,2,4,4-tetramethyl-chroman-6-ylethynyl)-phenyl]-2-methyl-propionic acid] | > 10 | 0.16 | > 10 | > 10 | > 10
3 | CN(C1CC1)C1CCC(C)(C)c2cc(NC(=O)Nc3ccc(C(=O)O)cc3)ccc21 (stereo not shown) [Compound 21, 4-{3-[5-(Cyclopropyl-methyl-amino)-8,8-dimethyl-5,6,7,8-tetrahydro-naphthalen-2-yl]-ureido}-benzoic acid] | > 10 | > 10 | > 10 | > 10 | 0.7
4 | CC(C(=O)O)c1ccc(C#Cc2cc(O)c3c(c2)C(C)(C)CC(C)(C)O3)cc1 (stereo not shown) [Compound 11, 2-[4-(8-Hydroxy-2,2,4,4-tetramethyl-chroman-6-ylethynyl)-phenyl]-propionic acid] | > 10 | 0.07 | > 10 | > 10 | 3
5 | CC(C(=O)O)c1ccc(C#Cc2cc(C3CC3)c3c(c2)C(C)(C)CC2(CC2)O3)cc1 (stereo not shown) [Compound 1, 2-{4-[(8-Cyclopropyl-3,4-dihydro-4,4-dimethylspiro[2H-1-benzopyran-2,1′-cyclopropane]-6-yl)ethynyl]-phenyl}-propionic acid] | 2.09 | 0.009 | 3.02 | 3.49 | 8
6 | CC(C)OC(=O)c1cc(C#Cc2ccc(CC(=O)O)cc2)cc2c1OC(C)(C)CC2(C)C [Compound 18, 6-(4-Carboxymethyl-phenylethynyl)-2,2,4,4-tetramethyl-chroman-8-carboxylic acid isopropyl ester] |  | 0.4 |  |  | > 10
7 | CC(C)N(Cc1cc(C(=O)Oc2ccc(CC(=O)O)cc2)cc2c1OC(C)(C)CC2(C)C)C1CC1 [Compound 17, 8-[(Cyclopropyl-isopropyl-amino)-methyl]-2,2,4,4-tetramethyl-chroman-6-carboxylic acid 4-carboxymethyl-phenyl ester] |  | 2.5 |  |  | > 10
8 | CC(C)(C)COC(=O)c1cc(C#Cc2ccc(CC(=O)O)cc2)cc2c1OC(C)(C)CC2(C)C [Compound 19, 6-(4-Carboxymethyl-phenylethynyl)-2,2,4,4-tetramethyl-chroman-8-carboxylic acid 2,2-dimethylpropyl ester] |  | 7 |  |  | > 10
9 | CC(C)(C)OC(=O)c1cc(C#Cc2ccc(CC(=O)O)cc2)cc2c1OC(C)(C)CC2(C)C [Compound 20, 6-(4-Carboxymethyl-phenylethynyl)-2,2,4,4-tetramethyl-chroman-8-carboxylic acid tert-butyl ester] |  | 2.9 |  |  | > 10

Now from value to molecule:

Row | Kd [1] [µM] | IC50 [2] [µM] | Kd [3] [µM] | Kd [4] [µM] | IC50 [5] [µM] | SMILES
10 | 5.28 | 0.05 | > 10 | > 10 |  | CC(C(=O)O)c1ccc(C#Cc2cc(C3CC3)c3c(c2)C(C)(C)CCC3N(C)C2CC2)cc1 (stereo not shown) [Compound 49, 2-{4-[4-Cyclopropyl-5-(cyclopropyl-methyl-amino)-8,8-dimethyl-5,6,7,8-tetrahydro-naphthalen-2-ylethynyl]-phenyl}-propionic acid]
11 | > 10 | 0.44 | > 10 | > 10 | > 10 | C/C(=C/C(=O)O)c1ccc(C#Cc2cccc(CN(C)C3CC3)c2)cc1 [Compound 32, 3-(4-{3-[(Cyclopropyl-methyl-amino)-methyl]-phenylethynyl}-phenyl)-but-2-enoic acid]
12 | > 10 | 0.7 | 8.17 | > 10 | 7.5 | CC(C)OC(=O)c1cccc(C#Cc2ccc(CC(=O)O)c(F)c2)c1 [Compound 44, 3-(4-Carboxymethyl-3-fluoro-phenylethynyl)-benzoic acid isopropyl ester]
13 | > 10 | 0.25 | > 10 | 4.2 | > 10 | COc1cc(C#Cc2ccc(C(C)(C)C(=O)O)cc2)cc2c1C(N(C)C1CC1)CCC2(C)C (stereo not shown) [Compound 28, 2-{4-[5-(Cyclopropyl-methyl-amino)-4-methoxy-8,8-dimethyl-5,6,7,8-tetrahydro-naphthalen-2-ylethynyl]-phenyl}-2-methyl-propionic acid]
